The results in this text go back to patent publication US8691855B2, “Compounds, isomer thereof, or pharmaceutically acceptable salts thereof as vanilloid receptor antagonist and pharmaceutical compositions containing the same” (Amorepacific Corporation, priority 2008, dated 2014).

Each structure is given as a SMILES string.

For one test, the system named is Male ICR mice. In words: Analgesic activity test: mouse writhing test by inducing with phenyl-p-quinone. Format: in vivo. The conditions noted are these: po, p.o., read-out: Analgesic effect (% Inhibition). On the procedure:
2. Analgesic Activity Test: Mouse Writhing Test by Inducing with Phenyl-p-quinone Male ICR mice (mean body weight 25 g) were maintained in a controlled lighting environment (12 h on/12 h off) for experiment. Animals received an intraperitoneal injection of 0.3 ml of the chemical irritant phenyl-p-quinone (dissolved in saline containing 5% ethanol to be a close of 4.5 mg/kg) and 6 mins later, the number of abdominal constrictions was counted in the subsequent 6 mins period. Animals (10 animals/group) received 0.2 ml of test compounds solution in vehicle of ethanol/Tween 80/saline (Oct. 10, 1980) intraperitoneally 30 min before the injection of phenyl-p-quinone. In the case of oral administration, 0.2 ml of test compounds solution in vehicle of ethanol/Tween 80/saline (5/5/90) were administered 54 min prior to the 0.2 ml of 0.02% phenyl-p-quinone injection. A reduction in the number of writhes responding to the test drug compound relative to the number responding in saline control group was considered to be indicative of an analgesic effect. Analgesic effect was calculated by % inhibition equation (% inhibition=(C-T)/C×100), wherein C and T represent the number of writhes in control and compound-treated group, respectively.
(In writhing tests, fewer writhes than in controls are read as antinociception.)

In a further test the target is T1, vanilloid receptor (Rattus norvegicus, UniProt O35433).
T1 construct: DRG nerve cells from the primary culture of 2 days were equilibrated; endogenous in cells; host or cells: primary culture of dorsal root ganglion neurons from neonatal SD rats
T1 sequence (O35433 whole entry): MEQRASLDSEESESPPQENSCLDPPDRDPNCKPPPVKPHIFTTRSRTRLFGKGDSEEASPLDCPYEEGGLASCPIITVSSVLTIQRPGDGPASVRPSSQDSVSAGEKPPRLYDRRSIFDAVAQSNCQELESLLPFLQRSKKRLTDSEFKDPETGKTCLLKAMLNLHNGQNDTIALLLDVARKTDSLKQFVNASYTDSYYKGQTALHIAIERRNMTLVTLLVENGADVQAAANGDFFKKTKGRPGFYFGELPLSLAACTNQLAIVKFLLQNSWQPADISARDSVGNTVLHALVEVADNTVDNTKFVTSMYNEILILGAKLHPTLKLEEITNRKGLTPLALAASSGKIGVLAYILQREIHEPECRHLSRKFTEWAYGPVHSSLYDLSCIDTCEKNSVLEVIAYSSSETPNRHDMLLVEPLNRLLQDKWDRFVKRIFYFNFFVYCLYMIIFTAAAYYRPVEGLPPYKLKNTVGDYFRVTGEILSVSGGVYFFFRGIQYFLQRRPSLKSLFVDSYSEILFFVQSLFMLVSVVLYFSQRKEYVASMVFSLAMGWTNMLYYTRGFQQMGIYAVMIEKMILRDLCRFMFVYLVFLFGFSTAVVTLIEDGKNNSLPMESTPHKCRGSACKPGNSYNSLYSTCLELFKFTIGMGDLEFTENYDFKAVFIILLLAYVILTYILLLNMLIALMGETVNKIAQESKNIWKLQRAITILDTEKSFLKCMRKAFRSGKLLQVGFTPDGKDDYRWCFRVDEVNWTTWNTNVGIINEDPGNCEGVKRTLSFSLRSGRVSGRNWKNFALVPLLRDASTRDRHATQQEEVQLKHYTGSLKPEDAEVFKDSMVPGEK
In words: 45Ca influx test (antagonist calcium uptake test) in rat DRG neurons stimulated with capsaicin. Format: cell-based. The conditions noted are these: neonatal SD rat DRG neurons; capsaicin 0.5 μM; 45Ca. The essentials: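 Neonatal SD rat DRG neurons, cultured 2 days with NGF 200 ng/ml, exposed to test compound plus 0.5 μM capsaicin and 45Ca (10 μCi/ml) in HEPES-buffered Ca/Mg-free HBSS, pH 7.4, 10 min at room temperature. Influx counted by scintillation; activity as percent inhibition of the 0.5 μM capsaicin maximal response.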

The term IC50 denotes the concentration that gives 50% inhibition.

`C[C@@H](NC(=O)c1csc(-c2cccc(C3CC3)c2)n1)c1cc(F)c(NS(C)(=O)=O)c(F)c1` [Example 101, 2-(3-Cyclopropyl-phenyl)-thiazole-4-carboxylic acid [1-(3,5-difluoro-4-methanesulfonylamino-phenyl)-ethyl]-amide]: the inhibition in vivo at 3 mg/kg in the test on Male ICR mice was found to be 33%. At vanilloid receptor, the IC50 worked out at 73 nM.

Regarding `CS(=O)(=O)Nc1ccc(CNC(=O)c2ccc(-c3cccc(C(F)(F)F)c3)o2)cc1F` [Example 118, 5-(3-Trifluoromethyl-phenyl)-furan-2-carboxylic acid 3-fluoro-4-methanesulfonylamino-benzylamide], the inhibition in vivo at 3 mg/kg in the test with Male ICR mice is 42%. On vanilloid receptor, the IC50 is 370 nM.

Take `CC(C)c1cccc(-c2nc(C(=O)N[C@H](C)c3cc(F)c(NS(C)(=O)=O)c(F)c3)cs2)c1` [Example 80, 2-(3-Isopropyl-phenyl)-thiazole-4-carboxylic acid [1-(3,5-difluoro-4-methanesulfonylamino-phenyl)-ethyl]-amide]: the inhibition in vivo at 3 mg/kg in the test on Male ICR mice is 22%. For the same compound, the IC50 at vanilloid receptor was 30 nM.

Take `CS(=O)(=O)Nc1ccc(CNC(=O)c2ccc(-c3ccccc3C(F)(F)F)o2)cc1F` [Example 117, 5-(2-Trifluoromethyl-phenyl)-furan-2-carboxylic acid 3-fluoro-4-methanesulfonylamino-benzylamide]: the inhibition in vivo at 3 mg/kg with Male ICR mice stood at 39%. The IC50 at vanilloid receptor was determined as 680 nM.

As for `C[C@@H](NC(=O)c1coc(Oc2cccc(C3CC3)c2)n1)c1cc(F)c(NS(C)(=O)=O)c(F)c1` [Example 32, 2-(3-Cyclopropyl-phenoxy)-oxazole-4-carboxylic acid [1-(3,5-difluoro-4-methanesulfonylamino-phenyl)-ethyl]-amide], in the test with Male ICR mice, the inhibition in vivo at 3 mg/kg came to 32%. In addition, the half-inhibitory concentration (IC50) on vanilloid receptor worked out at 280 nM.

Regarding `CC(C)c1cccc(Oc2nc(C(=O)N[C@H](C)c3cc(F)c(NS(C)(=O)=O)c(F)c3)co2)c1` [Example 4, 2-(3-Isopropyl-phenoxy)-oxazole-4-carboxylic acid [1-(3,5-difluoro-4-methanesulfonylamino-phenyl)-ethyl]-amide], the inhibition in vivo at 3 mg/kg in the test with Male ICR mice was found to be 28%. Besides, the half-inhibitory concentration (IC50) at vanilloid receptor was found to be 80 nM.

`C[C@@H](NC(=O)c1ccc(-c2cc(C(F)(F)F)cc(C(F)(F)F)c2)o1)c1cc(F)c(NS(C)(=O)=O)c(F)c1` [Example 123, 5-(3,5-Bis-trifluoromethyl-phenyl)-furan-2-carboxylic acid [1-(3,5-difluoro-4-methanesulfonylamino-phenyl)-ethyl]-amide]: in the test with Male ICR mice, the inhibition in vivo at 0.3 mg/kg came to 21%. In addition, the concentration for half-maximal inhibition (IC50) on vanilloid receptor is 45 nM.

For `CC(c1cccc(Oc2nc(C(=O)N[C@H](C)c3cc(F)c(NS(C)(=O)=O)c(F)c3)co2)c1)C(F)(F)F` (stereo partly shown) [Example 35, 2-[3-(2,2,2-Trifluoro-1-methyl-ethyl)-phenoxy]-oxazole-4-carboxylic acid [1-(3,5-difluoro-4-methanesulfonylamino-phenyl)-ethyl]-amide], in the test with Male ICR mice, the inhibition in vivo at 0.3 mg/kg is 29%. Also, on vanilloid receptor, the IC50 is 1800 nM.

For the compound `C[C@@H](NC(=O)c1coc(Oc2cccc(C(C)(C)C)c2)n1)c1cc(F)c(NS(C)(=O)=O)c(F)c1` [Example 1, 2-(3-tert-Butyl-phenoxy)-oxazole-4-carboxylic acid [1-(3,5-difluoro-4-methanesulfonylamino-phenyl)-ethyl]-amide], in the test on Male ICR mice, the inhibition in vivo at 3 mg/kg stood at 21%. Besides, the IC50 at vanilloid receptor amounted to 150 nM.

For the compound `CC(C)c1cccc(-c2nc(C(=O)N[C@H](C)c3cc(F)c(NS(C)(=O)=O)c(F)c3)co2)c1` [Example 69, 2-(3-Isopropyl-phenyl)-oxazole-4-carboxylic acid [1-(3,5-difluoro-4-methanesulfonylamino-phenyl)-ethyl]-amide], in the test on Male ICR mice, the inhibition in vivo at 0.3 mg/kg worked out at 35%. Further, the 50% inhibitory concentration (IC50) on vanilloid receptor was determined as 160 nM.

Regarding `C[C@@H](NC(=O)c1csc(-c2cc(C(F)(F)F)cc(C(F)(F)F)c2)n1)c1cc(F)c(NS(C)(=O)=O)c(F)c1` [Example 93, 2-(3,5-Bis-trifluoromethyl-phenyl)-thiazole-4-carboxylic acid [1-(3,5-difluoro-4-methanesulfonylamino-phenyl)-ethyl]-amide], the inhibition in vivo at 3 mg/kg in the test on Male ICR mice is 41%. The IC50 on vanilloid receptor came to 910 nM.

On to `C[C@@H](NC(=O)c1coc(Oc2cccc(C(F)(F)F)c2)n1)c1cc(F)c(NS(C)(=O)=O)c(F)c1` [Example 2, 2-(3-Trifluoromethyl-phenoxy)-oxazole-4-carboxylic acid [1-(3,5-difluoro-4-methanesulfonylamino-phenyl)-ethyl]-amide], for which the inhibition in vivo at 3 mg/kg in the test on Male ICR mice amounted to 32%. In addition, the concentration for half-maximal inhibition (IC50) at vanilloid receptor stood at 410 nM.

With `C[C@@H](NC(=O)c1coc(-c2cccc(C(F)(F)F)c2)n1)c1cc(F)c(NS(C)(=O)=O)c(F)c1` [Example 67, 2-(3-Trifluoromethyl-phenyl)-oxazole-4-carboxylic acid [1-(3,5-difluoro-4-methanesulfonylamino-phenyl)-ethyl]-amide], the inhibition in vivo at 3 mg/kg in the test with Male ICR mice was 43%. The IC50 at vanilloid receptor worked out at 360 nM.

For `C[C@@H](NC(=O)c1coc(Oc2cccc(C(F)(F)F)c2C2CC2)n1)c1cc(F)c(NS(C)(=O)=O)c(F)c1` [Example 46, 2-(2-Cyclopropyl-3-trifluoromethyl-phenoxy)-oxazole-4-carboxylic acid [1-(3,5-difluoro-4-methanesulfonylamino-phenyl)-ethyl]-amide], the inhibition in vivo at 3 mg/kg with Male ICR mice stood at 53%. For the same compound, on vanilloid receptor, the half-inhibitory concentration (IC50) was 430 nM.

`C[C@@H](NC(=O)c1ccc(-c2ccccc2C(F)(F)F)o1)c1cc(F)c(NS(C)(=O)=O)c(F)c1` [Example 119, 5-(2-Trifluoromethyl-phenyl)-furan-2-carboxylic acid [1-(3,5-difluoro-4-methanesulfonylamino-phenyl)-ethyl]-amide]: the inhibition in vivo at 3 mg/kg in the test on Male ICR mice worked out at 38%. In addition, the IC50 on vanilloid receptor was found to be 130 nM.

As to `C[C@@H](NC(=O)c1coc(-c2ccc(Cl)c(C(F)(F)F)c2)n1)c1cc(F)c(NS(C)(=O)=O)c(F)c1` [Example 91, 2-(4-Chloro-3-trifluoromethyl-phenyl)-oxazole-4-carboxylic acid [1-(3,5-difluoro-4-methanesulfonylamino-phenyl)-ethyl]-amide], the inhibition in vivo at 3 mg/kg in the test with Male ICR mice came out at 25%. Further, the IC50 on vanilloid receptor was determined as 210 nM.

In the case of `CC1CCc2c(Oc3nc(C(=O)N[C@H](C)c4cc(F)c(NS(C)(=O)=O)c(F)c4)co3)cccc21` (stereo partly shown) [Example 30, 2-(1-Methyl-indan-4-yloxy)-oxazole-4-carboxylic acid [1-(3,5-difluoro-4-methanesulfonylamino-phenyl)-ethyl]-amide], in the test on Male ICR mice, the inhibition in vivo at 3 mg/kg was determined as 16%. The half-maximal inhibitory concentration (IC50) on vanilloid receptor turned out to be 50 nM.

In the case of `C[C@@H](NC(=O)c1ccc(-c2cccc(C(F)(F)F)c2)o1)c1cc(F)c(NS(C)(=O)=O)c(F)c1` [Example 120, (R)-5-(3-Trifluoromethyl-phenyl)-furan-2-carboxylic acid [1-(3,5-difluoro-4-methanesulfonylamino-phenyl)-ethyl]-amide], the inhibition in vivo at 3 mg/kg with Male ICR mice was determined as 60%. Also, the IC50 at vanilloid receptor turned out to be 64 nM.

Turning to `C[C@@H](NC(=O)c1coc(-c2cc(C(F)(F)F)cc(C(F)(F)F)c2)n1)c1cc(F)c(NS(C)(=O)=O)c(F)c1` [Example 87, 2-(3,5-Bis-trifluoromethyl-phenyl)-oxazole-4-carboxylic acid [1-(3,5-difluoro-4-methanesulfonylamino-phenyl)-ethyl]-amide], in the test on Male ICR mice, the inhibition in vivo at 3 mg/kg came to 59%. At vanilloid receptor, the IC50 stood at 140 nM.

For `C[C@@H](NC(=O)c1ccc(-c2cccc(C3CC3)c2)o1)c1cc(F)c(NS(C)(=O)=O)c(F)c1` [Example 102, 5-(3-Cyclopropyl-phenyl)-furan-2-carboxylic acid [1-(3,5-difluoro-4-methanesulfonylamino-phenyl)-ethyl]-amide], the inhibition in vivo at 3 mg/kg in the test with Male ICR mice is 58%. Besides, at vanilloid receptor, the IC50 was determined as 100 nM.

As for `C[C@@H](NC(=O)c1coc(-c2cccc(C3CC3)c2)n1)c1cc(F)c(NS(C)(=O)=O)c(F)c1` [Example 100, 2-(3-Cyclopropyl-phenyl)-oxazole-4-carboxylic acid [1-(3,5-difluoro-4-methanesulfonylamino-phenyl)-ethyl]-amide], the inhibition in vivo at 3 mg/kg with Male ICR mice worked out at 35%. The half-inhibitory concentration (IC50) on vanilloid receptor is 48 nM.

Consider `C[C@@H](NC(=O)c1csc(-c2cccc(C(F)(F)F)c2)n1)c1cc(F)c(NS(C)(=O)=O)c(F)c1` [Example 94, 2-(3-Trifluoromethyl-phenyl)-thiazole-4-carboxylic acid [1-(3,5-difluoro-4-methanesulfonylamino-phenyl)-ethyl]-amide], for which the inhibition in vivo at 3 mg/kg with Male ICR mice was found to be 46%. Further, at vanilloid receptor, the IC50 is 360 nM.

Turning to `CCCc1c(Oc2nc(C(=O)N[C@H](C)c3cc(F)c(NS(C)(=O)=O)c(F)c3)co2)cccc1C(F)(F)F` [Example 42, 2-(2-Propyl-3-trifluoromethyl-phenoxy)-oxazole-4-carboxylic acid [1-(3,5-difluoro-4-methanesulfonylamino-phenyl)-ethyl]-amide], the inhibition in vivo at 0.3 mg/kg in the test with Male ICR mice was 30%. Further, the IC50 at vanilloid receptor amounted to 130 nM.
